Test results as given in patent US10934253B2, “Therapeutic compounds and methods” (UNIVERSITY OF TASMANIA, priority 2017, dated 2021).

Key:
[1] = system: LHON model induced by intravitreal rotenone in C57BL/6 mouse; test: Leber's hereditary optic neuropathy (LHON) mouse model, optomotor response; type: in vivo; conditions: rotenone in left eye, 200 mg/kg orally in food
Method: FIG. 5: Efficacy of representative compounds of Formula (I) in leber's hereditary optic neuropathy (LHON) mouse model. LHON induced by rotenone injection in the left eye (5 μM) in C57BL/6 mouse model (Refer to Heitz, F. D et al. (2012). PLoS One., 7(9), e45182). […] Representative compounds (UTA 37 and UTA 77) and idebenone administered at 200 mg/kg over the observation period.
LHON model was induced by intravitreal injection of rotenone into the left eye in C57BL/6 mouse model as described by Heitz et al. 2012. Representative compounds (UTA 37 and UTA 77) and idebenone administered at 200 mg/kg over the observation period. Vision loss was measured by assessing number of head turns.
C57BL/6 mice (male, 8-11 weeks of age, average body weight≈25 g) were used in accordance with the Australian code for the use of animals for scientific purposes and under the required animal ethics approval from the University of Tasmania (UTAS) Animal Ethics Committee (Approval number A0016080). Animals were given at least seven days to acclimatise to the animal facility to reduce stress induced by transportation before being used for behavioural testing. All mice were supplied orally with test compounds by mixing test compounds into individual daily food portions as described previously (Heitz, F. D. et al. (2012). PLoS One., 7(9), e45182). […]

HepG2 cells [2] = test: Acute ATP rescue assay (impaired mitochondrial function, rotenone); type: cell-based; conditions: Homo sapiens, 1 h; HepG2; 1 μM quinones with rotenone 10 μM, 60 minutes, glucose-free DMEM; % ATP compared to untreated (no-rotenone) control
Method: HepG2 cells were seeded at a density of 5000 cells per well in a 96-well plate and incubated for 24 hours in DMEM with 0.3 g/l glucose, 10% FBS and Penicillin-Streptomycin-Glutamine. Cells were treated with 1 μM quinones in presence or absence of rotenone (10 μM), for 60 minutes in glucose-free DMEM ATP levels were quantified using luminescence from the ATP-dependent enzymatic oxidation of luciferin by luciferase. Cells were lysed in a volume of 40 μl (4 mM EDTA, 0.2% Triton X-100) for five minutes at room temperature (RT) on an orbital shaker at 200 rpm. […] Luminescence was quantified immediately using a multimode plate reader (Fluoroscan Ascent, Thermo Scientific). ATP levels were standardized to protein levels using a commercial BCA assay (Protein DC; BioRad) and changes were calculated as percentage relative to levels of DMSO-treated control cells. Data is expressed as % ATP compared to the untreated (no-rotenone) control.
Vitamin K, menadione and idebenone were used as comparative controls. DMSO was used as a control.

HepG2 cells [3] = test: Rescue of cell viability in the presence of a mitochondrial inhibitor (rotenone 1 μM); type: cell-based; conditions: Homo sapiens, HepG2
Method: Cytoprotection of HepG2 cells by naphthoquinones was quantified in the presence of the mitochondrial toxin, rotenone. Briefly, HepG2 cells were seeded in 96-well plates at 5000 cells/well in DMEM with 0.3 g/l glucose, 10% FBS and Penicillin-Streptomycin-Glutamine. After overnight incubation under standard conditions, cells were treated with the test compounds (10 μM) for 2 days before cells were challenged with 1 μM rotenone in the presence of 10 μM test compounds in Hank's balanced salt solution (HBSS) for 6 hours. This was followed by post-incubation for an additional 18 hours with only 10 μM test compounds in HBSS. For measurement of cell viability, cells were washed with 100 μL PBS twice and then lysed using 40 μL lysis solution (4 mM EDTA, 0.2% Triton X-100) for 5 min at room temperature (RT) on an orbital shaker at 200 rpm. Then 10 μL of the lysate was mixed with 90 μL of enzyme-substrate mixture (as described above) in a white 96 well plate and luminescence was measured immediately using a plate-reader (Fluoroscan Ascent, Thermo Scientific). The data is expressed as % viability compared to the untreated (no-rotenone) control.
The extent of protection of cellular viability against a rotenone challenge of representative compounds of Formula (I) is shown below in Table 5. Vitamin K, Menadione and Idebenone were used as comparative controls. DMSO was used as a control.

COc1ccc(CCNC(=O)CCCC2=C(C)C(=O)c3ccccc3C2=O)cc1OC [UTA #77, N-(3,4-dimethoxyphenethyl)-4-(3-methyl-1,4-naphthoquinone-2-yl)butanamide]
Protection of visual acuity (head turns, optomotor response; in words) [1]: Statistically significant protection of visual acuity | activity at 1 µM (HepG2 cells [2]): 99.1% | viability at 10 µM (HepG2 cells [3]): 95.9%
